Results on 30 compounds are retold here after PMC5567267, “Discovery of a potent protein kinase D inhibitor: insights in the binding mode of pyrazolo[3,4-d]pyrimidine analogues” (MedChemComm, 2017).

Where two headings read alike, the source gives them in different places.

The assay concerns the target T1, PKD2 (Homo sapiens, UniProt Q9BZL6).
T1 construct: made in house; host or cells: HEK293T cells, transient transfection with pDEST27-PRKD2, stimulated with 500 nM PDB before lysis
T1 sequence (Q9BZL6 1-878): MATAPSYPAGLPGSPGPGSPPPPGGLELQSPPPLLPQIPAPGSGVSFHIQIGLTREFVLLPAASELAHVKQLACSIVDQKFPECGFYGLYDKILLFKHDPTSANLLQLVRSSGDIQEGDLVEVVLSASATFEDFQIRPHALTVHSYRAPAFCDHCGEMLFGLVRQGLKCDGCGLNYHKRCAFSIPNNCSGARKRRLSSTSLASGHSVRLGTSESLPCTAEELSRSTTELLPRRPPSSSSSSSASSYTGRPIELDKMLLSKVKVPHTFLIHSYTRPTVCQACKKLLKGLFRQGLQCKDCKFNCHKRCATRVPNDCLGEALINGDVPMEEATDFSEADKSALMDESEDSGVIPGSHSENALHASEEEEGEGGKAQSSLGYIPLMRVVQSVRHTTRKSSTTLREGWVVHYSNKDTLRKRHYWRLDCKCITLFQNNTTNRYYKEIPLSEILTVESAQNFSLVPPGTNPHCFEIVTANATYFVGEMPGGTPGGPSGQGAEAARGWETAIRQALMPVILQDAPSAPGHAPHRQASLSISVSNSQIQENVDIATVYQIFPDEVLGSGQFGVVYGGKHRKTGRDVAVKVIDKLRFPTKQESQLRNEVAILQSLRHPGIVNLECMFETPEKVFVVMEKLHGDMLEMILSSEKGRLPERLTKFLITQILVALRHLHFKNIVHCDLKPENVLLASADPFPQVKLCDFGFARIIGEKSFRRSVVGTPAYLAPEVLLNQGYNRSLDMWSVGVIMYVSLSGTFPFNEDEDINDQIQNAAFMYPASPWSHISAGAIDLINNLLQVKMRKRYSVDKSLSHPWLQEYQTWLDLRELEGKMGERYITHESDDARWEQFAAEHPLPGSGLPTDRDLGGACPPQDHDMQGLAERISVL
As to the kind of experiment: PKD2 screening assay (in vitro radiometric kinase assay). It counts as biochemical. The conditions noted are these: for remaining activity at 1 µM: 10 min; for IC50: radiometric. On the procedure: All 35 described analogues were characterized in vitro via an initial screening at 1 μM against PKD2. […]
scanning of a coomassie stained SDS-polyacrylamide gel.
An in vitro radiometric assay was used to determine the inhibition of PKD in presence of various compounds at a […]
determinations. Reactions were carried out in 40µl of a mixture containing 50mM Tris-HCl pH 7.4, 10mM MgCl2, 50ng of PDB stimulated GST-PKD2, 4µg/ml Syntide-2 (Sigma Aldrich, St. Louis, USA), 25µM ATP and 2µCi [γ-32P]ATP (Perkin-Elmer, Massachusetts, USA). After 10’ the reaction was stopped by spotting 30µl of the reaction on whatmann P81 filter paper. The filter papers were washed 3 times in 0.5% phosphoric acid, followed by one wash in 100% acetone. Subsequently the papers were air-dried and counted using the Tri-Carb 2810 TR scintillation counter (Perkin-Elmer). Percentage of PKD2 inhibition was determined relative to a condition where no inhibitor was added (0,1% dimethylsulfoxide (DMSO)). Graphs were plotted and IC50 values were determined using the GraphPad software package (Prism). […]

Setting [1] is: ESI table, initial screening of all analogues at 1µM, read-out: % PKD2 activity remaining (1µM) (average ±SD).
[2] abbreviates: compound at 1 μM, PDB stimulated GST-PKD2, Syntide-2, 25µM ATP, relative to no inhibitor (DMSO), read-out: % PKD 2 activity remaining (1 μM) (Average ± SD).
Setting [3] is: PDB stimulated GST-PKD2, Syntide-2, 25µM ATP.

Turning to “2-acetyl-5-(4-amino-1-(tert-butyl)-1H-pyrazolo[3,4-d]pyrimidin-3-yl)benzaldehyde [Compound 6f]”, under “ESI table, initial screening of all analogues at 1µM”, the “% PKD2 activity remaining (1µM) (average ±SD)” value was found to be 81 ±4.5%.

As to `CC(C)(C)n1nc(-c2ccccc2)c2c(N)ncnc21` [Compound 6a, 1-tert-butyl-3-phenyl-1H-pyrazolo[3,4-d]pyrimidin-4-amine], the remaining activity at 1 µM under setting [1] was 77 ± 2.9% and the remaining activity at 1 µM under setting [2] was determined as 76 ± 2.9%. The compound further displayed an IC50 under setting [3] of 9490 nM.

In the case of `CC(C)(C)n1nc(-c2ccc(F)cc2)c2c(N)ncnc21` [Compound 6b, 1-tert-butyl-3-(4-fluorophenyl)-1H-pyrazolo[3,4-d]pyrimidin-4-amine], the remaining activity at 1 µM under setting [1] worked out at 81 ± 4%.

As for `CC(C)(C)n1nc(-c2ccccc2Cl)c2c(N)ncnc21` [Compound 6c, 1-tert-butyl-3-(2-chlorophenyl)-1H-pyrazolo[3,4-d]pyrimidin-4-amine], under setting [1], the remaining activity at 1 µM came to 73 ± 2.4%.

Regarding `CC(C)(C)n1nc(-c2ccccc2F)c2c(N)ncnc21` [Compound 6d, 1-tert-butyl-3-(2-fluorophenyl)-1H-pyrazolo[3,4-d]pyrimidin-4-amine], under setting [1], the remaining activity at 1 µM was 83 ± 9.4%.

`COc1ccc(-c2nn(C(C)(C)C)c3ncnc(N)c23)cc1` [Compound 6e, 1-tert-butyl-3-(4-methoxyphenyl)-1H-pyrazolo[3,4-d]pyrimidin-4-amine]: the remaining activity at 1 µM under setting [1] was found to be 80 ± 7%.

Consider `C=Cc1ccc(-c2nn(C(C)(C)C)c3ncnc(N)c23)cc1` [Compound 6g, 1-(tert-butyl)-3-(4-vinylphenyl)-1H-pyrazolo[3,4-d]pyrimidin-4-amine], for which, under setting [1], the remaining activity at 1 µM was determined as 84 ± 9.4%.

On to `CC(C)(C)n1nc(-c2ccc3ccccc3c2)c2c(N)ncnc21` [Compound 6h, 1-tert-butyl-3-(2-naphthyl)-1H-pyrazolo[3,4-d]pyrimidin-4-amine], for which the remaining activity at 1 µM under setting [1] was found to be 59 ± 5%.

Turning to `CC(C)(C)n1nc(-c2cccc3ccccc23)c2c(N)ncnc21` [Compound 6i, 1-tert-butyl-3-(1-naphthyl)-1H-pyrazolo[3,4-d]pyrimidin-4-amine], the remaining activity at 1 µM is, setting by setting: under setting [1], 34 ± 0.4%; under setting [2], 34 ± 0.4%. This compound also had a half-maximal inhibitory concentration (IC50) under setting [3] of 403 nM.

For the compound `CC(C)(C)n1nc(-c2ccc(C#N)cc2)c2c(N)ncnc21` [Compound 6j, 4-(4-amino-1-(tert-butyl)-1H-pyrazolo[3,4-d]pyrimidin-3-yl)benzonitrile], the remaining activity at 1 µM under setting [1] came out at 97 ± 0.8%.

In the case of `CC(C)(C)c1ccc(-c2nn(C(C)(C)C)c3ncnc(N)c23)cc1` [Compound 6k, 1-(tert-butyl)-3-(4-(tert-butyl)phenyl)-1H-pyrazolo[3,4-d]pyrimidin-4-amine], the remaining activity at 1 µM under setting [1] came out at 93 ± 1.5%.

`CC(C)(C)n1nc(Cc2ccccc2)c2c(N)ncnc21` [Compound 7a, 3-benzyl-1-tert-butyl-1H-pyrazolo[3,4-d]pyrimidin-4-amine]: the remaining activity at 1 µM by setting is: under setting [1], 35 ± 1.3%; under setting [2], 35 ± 1.3%. This compound returned an IC50 under setting [3] of 449 nM.

With `CC(C)(C)n1nc(Cc2ccccc2Cl)c2c(N)ncnc21` [Compound 7b, 1-tert-butyl-3-(2-chlorobenzyl)-1H-pyrazolo[3,4-d]pyrimidin-4-amine], the remaining activity at 1 µM by setting is: under setting [1], 41 ± 2.6%; under setting [2], 41 ± 2.6%. This compound also had a concentration for half-maximal inhibition (IC50) under setting [3] of 451 nM.

Turning to `CC(C)(C)n1nc(Cc2cccc(Cl)c2)c2c(N)ncnc21` [Compound 7c, 1-tert-butyl-3-(3-chlorobenzyl)-1H-pyrazolo[3,4-d]pyrimidin-4-amine], the remaining activity at 1 µM under setting [1] was determined as 56 ± 2.4% and the remaining activity at 1 µM under setting [2] was found to be 55 ± 2.4%.

As for `Cn1nc(Cc2cccc(Cl)c2)c2c(N)ncnc21` [Compound 7d, 3-(3-chlorobenzyl)-1-methyl-1H-pyrazolo[3,4-d]pyrimidin-4-amine], the remaining activity at 1 µM is 83 ± 6.4% under setting [1] and 83 ± 6.4% under setting [2]. Under setting [3], this compound yielded a concentration for half-maximal inhibition (IC50) of 4840 nM.

With `CC(C)(C)n1nc(Cc2ccccc2Br)c2c(N)ncnc21` [Compound 7e, 3-(2-bromobenzyl)-1-tert-butyl-1H-pyrazolo[3,4-d]pyrimidin-4-amine], the remaining activity at 1 µM reads like this: under setting [1], 43 ± 6.6%; under setting [2], 43 ± 6.6%. This compound also had a 50% inhibitory concentration (IC50) under setting [3] of 535 nM.

For the compound `CC(C)(C)n1nc(Cc2cccc(Br)c2)c2c(N)ncnc21` [Compound 7f, 3-(3-bromobenzyl)-1-tert-butyl-1H-pyrazolo[3,4-d]pyrimidin-4-amine], the remaining activity at 1 µM under setting [1] turned out to be 59 ± 3.3%.

For `CC(C)(C)n1nc(Cc2cccc(Cl)c2Cl)c2c(N)ncnc21` [Compound 7g, 1-tert-butyl-3-(2,3-dichlorobenzyl)-1H-pyrazolo[3,4-d]pyrimidin-4-amine], the remaining activity at 1 µM under setting [1] worked out at 90 ± 5.1%.

In the case of `CC(C)(C)n1nc(Cc2ccc(Cl)c(Cl)c2)c2c(N)ncnc21` [Compound 7h, 1-tert-butyl-3-(3,4-dichlorobenzyl)-1H-pyrazolo[3,4-d]pyrimidin-4-amine], under setting [1], the remaining activity at 1 µM turned out to be 78 ± 3.3%.

Consider `CC(C)(C)n1nc(CCCc2ccccc2)c2c(N)ncnc21` [Compound 7i, 1-tert-butyl-3-(3-phenylpropyl)-1H-pyrazolo[3,4-d]pyrimidin-4-amine], for which the remaining activity at 1 µM was found to be 101 ± 8.3% under setting [1] and 101 ± 8.3% under setting [2]. For the same compound, the half-inhibitory concentration (IC50) under setting [3] was greater than 50000 nM.

Take `Cn1nc(CCCc2ccccc2)c2c(N)ncnc21` [Compound 7j, 1-methyl-3-(3-phenylpropyl)-1H-pyrazolo[3,4-d]pyrimidin-4-amine]: the remaining activity at 1 µM under setting [1] came out at 101 ± 3.3%.

As for `CC(C)(C)n1nc(CCCCc2ccccc2)c2c(N)ncnc21` [Compound 7k, 1-tert-butyl-3-(4-phenylbutyl)-1H-pyrazolo[3,4-d]pyrimidin-4-amine], the remaining activity at 1 µM by setting is: under setting [1], 92.8 ± 5.8%; under setting [2], 93 ± 5.8%. Also, under setting [3], the IC50 is greater than 50000 nM.

`Cn1nc(CCCCc2ccccc2)c2c(N)ncnc21` [Compound 7l, 1-methyl-3-(4-phenylbutyl)-1H-pyrazolo[3,4-d]pyrimidin-4-amine]: the remaining activity at 1 µM under setting [1] worked out at 98 ± 6.4%.

Take `Cn1nc(Cc2cccc3ccccc23)c2c(N)ncnc21` [Compound 7m, 1-methyl-3-(1-naphthylmethyl)-1H-pyrazolo[3,4-d]pyrimidin-4-amine]: the remaining activity at 1 µM runs as follows: under setting [1], 64 ± 3.9%; under setting [2], 64 ± 3.9%. The compound also gave a 50% inhibitory concentration (IC50) under setting [3] of 4660 nM.

As to `CCCCNc1nc(N)c2c(-c3ccccc3)nn(C(C)(C)C)c2n1` [Compound 13a, N6-butyl-1-tert-butyl-3-phenyl-1H-pyrazolo[3,4-d]pyrimidine-4,6-diamine], the remaining activity at 1 µM under setting [1] amounted to 77 ± 5.1%.

With `CCCCNc1nc(N)c2c(-c3cccc(Cl)c3)nn(C(C)(C)C)c2n1` [Compound 13b, N6-butyl-1-tert-butyl-3-(3-chlorophenyl)-1H-pyrazolo[3,4-d]pyrimidine-4,6-diamine], the remaining activity at 1 µM under setting [1] was found to be 81 ± 6.6%.

As to `CCCCNc1nc(N)c2c(-c3ccc(F)cc3)nn(C(C)(C)C)c2n1` [Compound 13c, N6-butyl-1-tert-butyl-3-(4-fluorophenyl)-1H-pyrazolo[3,4-d]pyrimidine-4,6-diamine], the remaining activity at 1 µM under setting [1] was determined as 69 ± 8.3%.

`CCCCNc1nc(N)c2c(-c3ccc(OC)cc3)nn(C(C)(C)C)c2n1` [Compound 13d, N6-butyl-1-tert-butyl-3-(4-methoxyphenyl)-1H-pyrazolo[3,4-d]pyrimidine-4,6-diamine]: the remaining activity at 1 µM under setting [1] is 80 ± 2.5%.

Turning to `CCCCNc1nc(N)c2c(-c3ccsc3)nn(C(C)(C)C)c2n1` [Compound 13e, N6-butyl-1-tert-butyl-3-(3-thienyl)-1H-pyrazolo[3,4-d]pyrimidine-4,6-diamine], under setting [1], the remaining activity at 1 µM came to 82 ± 7.2%.

On to `CCCCNc1nc(N)c2c(-c3cccc(C(F)(F)F)c3)nn(C(C)(C)C)c2n1` [Compound 13f, N6-butyl-1-tert-butyl-3-[3-(trifluoromethyl)phenyl]-1H-pyrazolo[3,4-d]pyrimidine-4,6-diamine], for which the remaining activity at 1 µM under setting [1] stood at 91 ± 8.5%.

In general, IC50 refers to the concentration needed to halve the response being measured. A low value points to greater potency in that assay.
